Several values for one entry are separate records, joined by “and”; a condition that tells them apart may be missing. Equal entries are not always repeated.

Experiment [1] concerns the target T1, TYK2 (Homo sapiens, UniProt P29597).
T1 construct: catalytic domain (amino acids 871-1187; catalog number 08-147); purchased Carna Biosciences 08-147
T1 sequence (P29597 871-1187): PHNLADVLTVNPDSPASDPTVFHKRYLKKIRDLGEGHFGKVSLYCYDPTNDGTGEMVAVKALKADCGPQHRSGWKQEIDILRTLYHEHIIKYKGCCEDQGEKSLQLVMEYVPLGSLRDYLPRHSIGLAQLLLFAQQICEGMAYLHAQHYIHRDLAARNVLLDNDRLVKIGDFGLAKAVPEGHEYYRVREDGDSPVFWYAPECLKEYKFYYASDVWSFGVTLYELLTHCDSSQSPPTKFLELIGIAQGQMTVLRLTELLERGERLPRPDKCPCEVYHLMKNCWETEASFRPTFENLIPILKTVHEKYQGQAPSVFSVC
The experiment is described as follows: TYK2 Ki determination assay. Format: biochemical. Conditions: Lineweaver-Burk plot, polyGT substrate, varying ATP. As to the method: For the determination of Ki, different amounts of compound are mixed with the enzyme and the enzymatic reaction is followed as a function of ATP concentration. The Ki is determined by means of double reciprocal plotting of Km vs compound concentration (Lineweaver-Burk plot). TYK2 (Carna Biosciences, 08-147) was used at a final concentration of 160 ng/ml. The substrate was Poly(Glu,Tyr)sodium salt (4:1), MW 20 000-50 000 (Sigma, P0275) The reaction was performed in 25 mM Hepes pH 7.2, 50 mM NaCl, 0.5 mM EDTA, 1 mM DTT, 5 mM MnCl2, 10 mM MgCl2, 0.1% Brij-35 with varying concentrations of ATP and compound and stopped by addition of 150 mM phosphoric acid. Measurement of incorporated phosphate into the substrate polyGT was done by loading the samples on a filter plate (using a harvester, Perkin Elmer) and subsequent washing. Incorporated ^33P in polyGT is measured in a Topcount scintillation counter after addition of scintillation liquid to the filter plates (Perkin Elmer).

Experiment [2] concerns the target T2, Recombinant human JAK3 catalytic domain (Homo sapiens, UniProt P52333).
T2 construct: catalytic domain (amino acids 795-1124; catalog number 08-046); purchased Carna Biosciences 08-046
The experiment is described as follows: JAK3 inhibition assay. Conditions: polyGT substrate, 1 μM ATP, 33P-gamma-ATP; individual determinations; read-out: IC50 against JAK3. The format is biochemical. The method, then:
Recombinant human JAK3 catalytic domain (amino acids 795-1124; catalog number 08-046) was purchased from Carna Biosciences. 0.5 ng JAK3 protein was incubated with 2.5 μg polyGT substrate (Sigma catalog number P0275) in kinase reaction buffer (25 mM Tris pH 7.5, 0.5 mM EGTA, 10 mM MgCl2, 2.5 mM DTT, 0.5 mM Na3VO4, 5 mM b-glycerolphosphate, 0.01% Triton X-100, 1 μM non-radioactive ATP, 0.25 μCi 33P-gamma-ATP (Perkin Elmer, catalog number NEG602K001MC) final concentrations) with or without 5 μL containing test compound or vehicle (DMSO, 1% final concentration), in a total volume of 25 μL, in a polypropylene 96-well plate (Greiner, V-bottom). After 45 min at 30° C., reactions were stopped by adding 25 μL/well of 150 mM phosphoric acid. […] 40 μL/well of Microscint-20 was added, the top of the plates was sealed and readout was performed using the Topcount (Perkin Elmer). Kinase activity was calculated by subtracting counts per min (cpm) obtained in the presence of a positive control inhibitor (10 μM staurosporine) from cpm obtained in the presence of vehicle. The ability of a test compound to inhibit this activity was determined as: Percentage inhibition=((cpm determined for sample with test compound present−cpm determined for sample with positive control inhibitor) divided by (cpm determined in the presence of vehicle−cpm determined for sample with positive control inhibitor))*100. […]

For experiment [3], the target named is T3, Recombinant human JAK2 (catalytic domain) (Homo sapiens, UniProt O60674).
T3 construct: Recombinant human JAK2 catalytic domain (amino acids 808-1132; catalog number PV4210); purchased Invitrogen PV4210
The experiment is described as follows: JAK2 Ulight-JAK1 peptide assay. The format is biochemical. Conditions: Ulight-JAK1(tyr1023) peptide, 7.5 μM ATP; individual determinations; read-out: IC50 against JAK2. As to the method:
Recombinant human JAK2 (catalytic domain, amino acids 866-1154; catalog number PV4210) was purchased from Invitrogen. 0.0125 mU of JAK2 was incubated with 25 nM Ulight-JAK1(tyr1023) peptide (Perkin Elmer catalog number TRF0121) in kinase reaction buffer (25 mM HEPES pH7.0, 0.01% Triton X-100, 7.5 mM MgCl2, 2 mM DTT, 7.5 μM ATP) with or without 4 μL containing test compound or vehicle (DMSO, 1% final concentration), in a total volume of 20 μL, in a white 384 Opti plate (Perkin Elmer, catalog number 6007290). […] Readout is performed using the Envision with excitation at 320 nm and measuring emission at 615 nm (Perkin Elmer). Kinase activity was calculated by subtracting relative fluorescence units (RFU) obtained in the presence of a positive control inhibitor (10 μM staurosporine) from RFU obtained in the presence of vehicle. The ability of a test compound to inhibit this activity was determined as: Percentage inhibition=((RFU determined for sample with test compound present−RFU determined for sample with positive control inhibitor) divided by (RFU determined in the presence of vehicle−RFU determined for sample with positive control inhibitor))*100. […]

The test system of experiment [4] is JAK-STAT. The experiment is described as follows: JAK-STAT signalling assay. The settings on record: HeLa cells, pSTAT1(2)-luciferase reporter, human OSM 33 ng/mL; read-out: IC50 against JAK-STAT. Format: cell-based. The method, then:
HeLa cells were maintained in Dulbecco's Modified Eagle's Medium (DMEM) containing 10% heat inactivated fetal calf serum, 100 U/mL penicillin and 100 μg/mL streptomycin. HeLa cells were used at 70% confluence for transfection. 20,000 cells in 87 μL cell culture medium were transiently transfected with 40 ng pSTAT1(2)-luciferase reporter (Panomics), 8 ng of LacZ reporter as internal control reporter and 52 ng of pBSK using 0.32 μL Jet-PEI (Polyplus) as transfection reagent per well in 96-well plate format. After overnight incubation at 37° C., 5% CO2, transfection medium was removed. 81 μL of DMEM+1.5% heat inactivated fetal calf serum was added. 9 μL compound at 10× concentration was added for 60 min and then 10 μL of human OSM (Peprotech) at 33 ng/mL final concentration. […]
40 μL of cell lysate was used to read β-galactosidase activity by adding 180 μL β-Gal solution (30 μl ONPG 4 mg/mL+150 μL β-Galactosidase buffer (0.06 M Na2HPO4, 0.04 M NaH2PO4, 1 mM MgCl2)) for 20 min. The reaction was stopped by addition of 50 μL Na2CO3 1 M. Absorbance was read at 405 nm.
Luciferase activity was measured using 40 μL cell lysate plus 40 μL of Steadylite® as described by the manufacturer (Perkin Elmer), on the Envision (Perkin Elmer). […]

The target of experiment [5] is T4, Recombinant human TYK2 catalytic domain (Homo sapiens, UniProt P29597).
T4 construct: catalytic domain (amino acids 871-1187; catalog number 08-147); purchased Carna Biosciences 08-147
T4 sequence (P29597 871-1187): T1 sequence (P29597 871-1187)
As to the kind of experiment: TYK2 inhibition assay. Format: biochemical. Conditions: polyGT substrate, 0.1 μM ATP, 33P-gamma-ATP; individual determinations; read-out: IC50 against TYK2. As to the method: Recombinant human TYK2 catalytic domain (amino acids 871-1187; catalog number 08-147) was purchased from Carna biosciences. 4 ng of TYK2 was incubated with 12.5 μg polyGT substrate (Sigma catalog number P0275) in kinase reaction buffer (25 mM Hepes pH 7.2, 50 mM NaCl, 0.5 mM EDTA, 1 mM DTT, 5 mM MnCl2, 10 mM MgCl2, 0.1% Brij-35, 0.1 μM non-radioactive ATP, 0.125 μCi ^33P-gamma-ATP (Perkin Elmer, catalog number NEG602K001MC) final concentrations) with or without 5 μL containing test compound or vehicle (DMSO, 1% final concentration), in a total volume of 25 μL, in a polypropylene 96-well plate (Greiner, V-bottom). After 90 min at 30° C., reactions were stopped by adding 25 μL/well of 150 mM phosphoric acid. […] 40 μL/well of Microscint-20 was added, the top of the plates was sealed and readout was performed using the Topcount (Perkin Elmer). Kinase activity was calculated by subtracting counts per min (cpm) obtained in the presence of a positive control inhibitor (10 μM staurosporine) from cpm obtained in the presence of vehicle. The ability of a test compound to inhibit this activity was determined as: Percentage inhibition=((cpm determined for sample with test compound present−cpm determined for sample with positive control inhibitor) divided by (cpm determined in the presence of vehicle−cpm determined for sample with positive control inhibitor))*100. […]

The target of experiment [6] is T5, Recombinant human JAK1 (catalytic domain, amino acids 866-1154) (Homo sapiens, UniProt P23458).
T5 construct: catalytic domain, amino acids 866-1154; purchased Invitrogen PV4774
As to the kind of experiment: JAK1 Ulight-JAK1 peptide assay. The format is biochemical. Conditions: Ulight-JAK1(tyr1023) peptide, 7 μM ATP; individual determinations; read-out: IC50 against JAK1. The method, then: Recombinant human JAK1 (catalytic domain, amino acids 866-1154; catalog number PV4774) was purchased from Invitrogen. 1 ng of JAK1 was incubated with 20 nM Ulight-JAK1(tyr1023) peptide (Perkin Elmer catalog number TRF0121) in kinase reaction buffer (25 mM MOPS pH6.8, 0.01% Brij-35, 5 mM MgCl2, 2 mM DTT, 7 μM ATP) with or without 4 μL containing test compound or vehicle (DMSO, 1% final concentration), in a total volume of 20 μL, in a white 384 Opti plate (Perkin Elmer, catalog number 6007290). […] Readout is performed using the Envision with excitation at 320 nm and measuring emission at 615 nm (Perkin Elmer). Kinase activity was calculated by subtracting relative fluorescence units (RFU) obtained in the presence of a positive control inhibitor (10 μM staurosporine) from RFU obtained in the presence of vehicle. The ability of a test compound to inhibit this activity was determined as: Percentage inhibition=((RFU determined for sample with test compound present−RFU determined for sample with positive control inhibitor) divided by (RFU determined in the presence of vehicle−RFU determined for sample with positive control inhibitor))*100.
A dose dilution series was prepared for the compound enabling the testing of dose-response effects in the JAK1 assay and the calculation of the IC50 for the compound. […] The data are expressed as the average IC50 from the assays±standard error of the mean.

T3 sequence (O60674 808-1132): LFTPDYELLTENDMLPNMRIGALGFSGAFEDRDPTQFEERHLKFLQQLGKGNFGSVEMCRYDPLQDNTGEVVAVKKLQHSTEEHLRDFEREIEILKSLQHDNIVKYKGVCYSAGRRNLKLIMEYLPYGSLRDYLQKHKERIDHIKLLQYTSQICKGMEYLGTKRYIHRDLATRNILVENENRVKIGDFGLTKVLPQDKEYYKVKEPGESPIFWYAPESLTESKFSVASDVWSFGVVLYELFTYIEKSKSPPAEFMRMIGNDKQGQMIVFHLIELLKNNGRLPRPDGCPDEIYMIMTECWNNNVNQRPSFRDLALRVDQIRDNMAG
T2 sequence (P52333 795-1124): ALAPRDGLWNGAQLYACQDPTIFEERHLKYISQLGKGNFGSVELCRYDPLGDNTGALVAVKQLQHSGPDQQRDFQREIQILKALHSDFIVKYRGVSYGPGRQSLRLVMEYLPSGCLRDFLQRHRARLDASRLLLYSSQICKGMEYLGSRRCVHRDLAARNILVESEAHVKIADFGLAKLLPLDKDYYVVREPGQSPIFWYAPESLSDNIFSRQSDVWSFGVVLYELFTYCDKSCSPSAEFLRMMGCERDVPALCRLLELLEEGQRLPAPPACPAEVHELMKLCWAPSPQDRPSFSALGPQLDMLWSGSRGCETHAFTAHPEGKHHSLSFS
T5 sequence (P23458 866-1154): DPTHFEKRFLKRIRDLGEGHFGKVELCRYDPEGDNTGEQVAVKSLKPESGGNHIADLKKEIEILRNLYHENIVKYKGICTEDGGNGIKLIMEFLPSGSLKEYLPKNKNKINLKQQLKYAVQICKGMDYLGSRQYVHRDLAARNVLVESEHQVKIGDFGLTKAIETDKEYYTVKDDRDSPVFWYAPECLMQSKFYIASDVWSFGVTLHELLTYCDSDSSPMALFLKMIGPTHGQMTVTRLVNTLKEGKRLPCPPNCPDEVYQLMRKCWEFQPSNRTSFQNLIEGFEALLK

`CC(=O)Nc1cc2c(-c3ccc(CN4CCN(S(C)(=O)=O)CC4)c(F)c3)cccn2n1` [Compound 1]: the affinity in experiment [1], expressed as Ki, was 0.11 µM. Moreover, the half-inhibitory concentration (IC50) in experiment [2] was 0.271 µM and 0.299 µM and 0.213 µM and 0.428 µM; in experiment [3], 0.0173 µM and 0.0113 µM and 0.00957 µM and 0.026 µM and 0.0182 µM; in experiment [4], 0.97 µM; in experiment [5], 0.167 µM and 0.135 µM and 0.119 µM and 0.157 µM; in experiment [6] it was 0.00818 µM and 0.0115 µM and 0.00771 µM and 0.0352 µM and 0.00785 µM.
